One data set has as its system liver cancer HepG2 cells. Put plainly: BrdU proliferation assay, HepG2. It is filed as cell-based, human. The note with it: 48 h. The protocol:
For BrdU assays, 1×10^4 of indicated cells were plated per well into a 96-well plate. After 24 h, cells were treated with the indicated inhibitors for 48 h. Three independent experiments were plated with six replicates per each condition. Cells were treated with […] BrdU for 2 h. BrdU incorporation into newly synthesized DNA was measured using a cell proliferation colorimetric immunoassay kit according to the manufacturer's instructions (Roche, Switzerland). Results are expressed as mean±S.D. Results are represented as percentage of positive cells (mean±S.D) of three independent experiments.

Data set [1] concerns Hakai-MDCK cell lines (clone 4 and clone 11). Put plainly: MTT cell viability assay, Hakai-MDCK. It counts as cell-based. The note with it: Hakai-MDCK clone 4 and clone 11, compared with MDCK. On the procedure:
(§1) For cytotoxicity assays, 1×10^4 cells were seeded per well into a 96-well plate. After 24 h cells were treated with the indicated inhibitors for 72 h and a MTT colorimetric cell viability assay was performed following manufacturer's instructions (Sigma Aldrich, St Louis, Mo.). Absorbance was measured at 570 and 630 nm using a Multiskan Plus Reader (Nanoquant Infinite M200 Tecan Trading AG, Switzerland). Dose-response curves were designed with Graph Pad Prism Software and the half-maximal inhibitory concentration (IC50) values were calculated. Represented data are the mean±SEM of at least three independent experiments with six replicates per condition.

In the next data set the test system is LoVo cells. Put plainly: Invasion assay, LoVo. The note with it: treated 48 h. It is filed as cell-based. The protocol:
For invasion assays, cells were treated with Hakin-1 or DMSO as vehicle for 48 h using 1% FBS during the last 24 hours. 3×10^5 MDCK, MDCK-Hakai or LoVo cells were seeded in a cell invasion chamber (Cell invasion assay kit, Chemicon International) containing medium with 2% FBS. After 72 hours for MDCK and MDCK-Hakai Invasive and 16 h for LoVo cells, invasive cells invaded that reach the lower chamber containing 30% FBS were fixed and stained with crystal violet (Sigma Aldrich, St Louis, Mo.) following the manufacturer's specifications. For migration assays, HT29 cells were cultured with Hakin-1 or DMSO as vehicle for 48 h, using medium without serum the last 24 h. In the cell migration chamber were seeded 3×10^5 HT29 cells (Cell migration kit, Millipore, Bedford, Mass.) containing medium without serum. After 16 h, migrated cells in the lower chamber containing serum with 30% FBS were stained with crystal violet and counted following the manufacturer's specifications. For both invasion and migration assays cells were counted in five fields photographed with an Olympus microscope using a 20× objective, experiments were performed in triplicates for each condition and the assays were repeated at least three times. Results are expressed as mean±SD.

Data set [2] has as its system Hakai-dependent ubiquitination of the E-cadherin complex. Put plainly: Hakai-dependent ubiquitination of the E-cadherin complex (immunoprecipitation). It counts as cell-based. The note with it: 293T cells transfected with Flag-Hakai, myc-E-cadherin, v-Src, HA-ubiquitin; IP anti-E-cadherin. On the procedure: For immunoprecipitation experiments, 293 cells were transfected with 3 μg Src, 4 μg Flag-Hakai, and 2 μg HA-ubiquitin and 3 μg E-cadherin with Lipofectamin 2000 (Invitrogen, UK). 24 h after transfection, cells were lysed for 20 min in 1 ml of 1% Triton X-100 lysis buffer (20 mM Tris-HCl pH 7.5, 150 mM NaCl and 1% Triton X-100) containing 10 μg/ml leupeptin, 10 μg/ml aprotinin and 1 mM phenylmethanesulphonyl fluoride (PMSF), supplemented with 10 mM N-ethylmaleimide and 2.5 mM sodium orthovanadate. After centrifugation at 18.000 g for 10 min, the supernatants were immunoprecipitated for 2 h with 2 μg of anti-E-cadherin antibody bound to 60 μl of protein G PLUS-Agarose beads, followed by SDS-polyacrylamide gel electrophoresis (PAGE) and western blotting with the indicated antibodies as previously reported.

The subject of data set [3] is ubiquitination in 293T cells. As to the kind of experiment: Ubiquitination assay in 293T cells transfected with v-Src and HA-ubiquitin (Hakai not overexpressed). It counts as cell-based. The note with it: vs DMSO. On the procedure: Six hours after transfection cells were treated with indicated concentrations of Hakin-1, Hakin-5 or the rest of the compounds tested for 36 h. Whole cell extracts were obtained in lysis buffer (20 mM Tris-HCl pH 7.5, 150 mM NaCl and 1% Triton X-100) containing 10 μg/ml leupeptin, 10 μg/ml aprotinin and 1 mM phenylmethanesulphonyl fluoride (PMSF), supplemented with 10 mM N-ethylmaleimide. Cells were harvested and subjected to western blotting using anti-HA antibody to detect ubiquitination.

Data set [4] has as its system Hakai-transformed MDCK cells. As to the kind of experiment: Phase-contrast cell phenotype, Hakai-MDCK. It is filed as cell-based. The note with it: Hakai-transformed MDCK cells (mesenchymal phenotype). The protocol: MDCK, HEK293T, HepG2, MCF7 and ACHN cells were cultured in Dulbecco's Modified Eagles Medium (DMEM). MDCK stably expressing Hakai cells (Hakai-MDCK) were previously reported and were growth in DMEM with G418 (800 μg/ml). […] LoVo and PC-3 cells were cultured in F-12K Medium (Kaighn's Modification of Ham's F-12 Medium) and HT-29 and HCT116 cells in McCoy's 5a Medium Modified. 5637 cells were cultured in RPMI medium. All culture media were supplemented with 1% penicillin/streptomycin and 10% of heat-inactivated fetal bovine serum (FBS) at 37° C. in a humidified incubator with 5% CO2. Cells were monthly tested for mycoplasma contamination and used only for 1-3 months after defrosted. LoVo and HT29 cells were authenticated with the StemElite ID system (Promega). For phase-contrast images, culture cells were photographed with a Nikon Eclipse-TI microscope.

Data set [5] relates to HCT116 colon cancer cells. Put plainly: MTT cell viability assay, HCT116. It counts as cell-based, human. The note with it: concentrations tested in the previous assays. The protocol:
as §1
On the technique in general: Tetrazolium assays rely on reduction of a dye to a coloured formazan, in cell work by metabolically active cells.

Each structure is given as a SMILES string.

Consider `O=C(O)c1ccc(-n2nnnc2SCC(=O)c2ccc([N+](=O)[O-])cc2)cc1` [Hakin-1, 4-(5-[2-(4-nitrophenyl)-2-oxoethyl]thiol-1H-tetrazol-1-yl)benzoic acid], for which the “cell proliferation (BrdU)” value in the data set with liver cancer HepG2 cells is listed as “inhibited cell proliferation”. Moreover, in data set [1], the “sensitivity to treatment (cell viability, MTT)” value was “more sensitive”. Further, in the data set on LoVo cells, the cell invasion result is reported as “strongly reduced cell invasion”. In addition, the “Hakai-dependent ubiquitination of E-cadherin complex” value in data set [2] was “reduction of Hakai-dependent ubiquitination of E-cadherin complex”. Also, in data set [3], the “ubiquitination when Hakai was not overexpressed” value is “did not affect ubiquitination”. For the same compound, the “cell phenotype by phase contrast” value in data set [4] is reported as “induction of an epithelial phenotype”.

As to `O=C(O)c1ccc(-n2nnnc2SCC(O)c2ccc([N+](=O)[O-])cc2)cc1` (stereo not shown) [MKH1], the “cytotoxic effect (cell viability, MTT)” value in data set [5] is “no cytotoxic effect”.

The values above are taken from patent publication US20230181535A1, “UBIQUITIN-LIGASE INHIBITORS FOR THE TREATMENT OF CANCER” (FUNDACIÓN PROFESOR NOVOA SANTOS, priority 2020, published 2023).
